In patent publication US20180186742A1, “PICOLINAMIDES AS FUNGICIDES” (Dow AgroSciences LLC, priority 2017, published 2018):
Where two headings read alike, the source gives them in different places.

Experiments:
Zymoseptoria tritici = assay: Leaf blotch of wheat (SEPTTR), disease control on wheat seedlings; assay type: in vivo; settings: for pest or weed control at 121.5 g/ha: low volume application at 121.5 g/H; for pest or weed control at 100 ppm: high volume application at 100 ppm
Procedure: Technical grades of materials were dissolved in acetone, which were then mixed with nine volumes of water containing 110 ppm Triton X-100. The fungicide solutions were applied onto wheat seedlings using an automated booth sprayer to run-off. All sprayed plants were allowed to air dry prior to further handling. All fungicides were evaluated using the aforementioned method for their activity vs. all target diseases, unless stated otherwise. Wheat leaf blotch and brown rust activity were also evaluated using track spray applications, in which case the fungicides were formulated as EC formulations, containing 0.1% Trycol 5941 in the spray solutions. Wheat plants (variety Yuma) were grown from seed in a greenhouse in 50% mineral soil/50% soil-less Metro mix until the first leaf was fully emerged, with 7-10 seedlings per pot. These plants were inoculated with an aqueous spore suspension of Zymoseptoria tritici either prior to or after fungicide treatments. After inoculation the plants were kept in 100% relative humidity (one day in a dark dew chamber followed by two to three days in a lighted dew chamber at 20° C.) to permit spores to germinate and infect the leaf. The plants were then transferred to a greenhouse set at 20° C. for disease to develop. When disease symptoms were fully expressed on the 1st leaves of untreated plants, infection levels were assessed on a scale of 0 to 100 percent disease severity. Percent disease control was calculated using the ratio of disease severity on treated plants relative to untreated plants.

Puccinia triticina = assay: Wheat brown rust (PUCCRT), disease control on wheat seedlings; assay type: in vivo; settings: for pest or weed control at 121.5 g/ha: low volume application at 121.5 g/H; for pest or weed control at 100 ppm: high volume application at 100 ppm
Procedure: Technical grades of materials were dissolved in acetone, which were then mixed with nine volumes of water containing 110 ppm Triton X-100. The fungicide solutions were applied onto wheat seedlings using an automated booth sprayer to run-off. All sprayed plants were allowed to air dry prior to further handling. All fungicides were evaluated using the aforementioned method for their activity vs. all target diseases, unless stated otherwise. Wheat leaf blotch and brown rust activity were also evaluated using track spray applications, in which case the fungicides were formulated as EC formulations, containing 0.1% Trycol 5941 in the spray solutions. Wheat plants (variety Yuma) were grown from seed in a greenhouse in 50% mineral soil/50% soil-less Metro mix until the first leaf was fully emerged, with 7-10 seedlings per pot. These plants were inoculated with an aqueous spore suspension of Puccinia triticina either prior to or after fungicide treatments. After inoculation the plants were kept in a dark dew room at 22° C. with 100% relative humidity overnight to permit spores to germinate and infect the leaf. The plants were then transferred to a greenhouse set at 24° C. for disease to develop. Fungicide formulation, application and disease assessment followed the procedures as described in the Example A.

[1] = 24 h, 1 Day Protectant, read-out: SEPTTR disease control, 1DP, LV activity
[2] = 72 h, 3 Day Curative, read-out: SEPTTR disease control, 3DC, LV activity
[3] = 24 h, 1 Day Protectant, read-out: PUCCRT disease control, 1DP, LV activity
[4] = 72 h, 3 Day Curative, read-out: PUCCRT disease control, 3DC, LV activity
[5] = 24 h, 1 Day Protectant, read-out: SEPTTR disease control, 1DP, HV activity
[6] = 72 h, 3 Day Curative, read-out: SEPTTR disease control, 3DC, HV activity
[7] = 24 h, 1 Day Protectant, read-out: PUCCRT disease control, 1DP, HV activity
[8] = 72 h, 3 Day Curative, read-out: PUCCRT disease control, 3DC, HV activity
[9] = 24 h, 1 Day Protectant, wheat leaf blotch, read-out: SEPTTR 1DP disease control, LV activity
[10] = 72 h, 3 Day Curative, wheat leaf blotch, read-out: SEPTTR 3DC disease control, LV activity
[11] = 24 h, 1 Day Protectant, wheat brown rust, read-out: PUCCRT 1DP disease control, LV activity
[12] = 72 h, 3 Day Curative, wheat brown rust, read-out: PUCCRT 3DC disease control, LV activity

| SMILES | pest or weed control at 100 ppm (Zymoseptoria tritici; [5]) | pest or weed control at 100 ppm (Zymoseptoria tritici; [6]) | pest or weed control at 100 ppm (Puccinia triticina; [7]) | pest or weed control at 100 ppm (Puccinia triticina; [8]) | other results |
| --- | --- | --- | --- | --- | --- |
| COc1ccnc(C(=O)N[C@@H](C)C(=O)OC(C)C(c2ccc(F)cc2)C(C)C)c1OC(C)=O (stereo partly shown) [Compound 169] | – | – | – | – | pest or weed control at 121.5 g/ha (Zymoseptoria tritici; [1]): < 80%; pest or weed control at 121.5 g/ha (Zymoseptoria tritici; [2]): > 80%; pest or weed control at 121.5 g/ha (Puccinia triticina; [3]): > 80%; pest or weed control at 121.5 g/ha (Puccinia triticina; [4]): > 80% |
| COc1ccnc(C(=O)N[C@@H](C)C(=O)O[C@@H](C)[C@@H](c2ccccc2)C2CCCC2)c1O [Compound 106] | < 0% | < 0% | < 80% | < 0% | – |
| COc1ccnc(C(=S)N[C@@H](C)C(=O)O[C@@H](C)[C@H](c2ccc(F)cc2C)C(C)C)c1O [Compound 136] | > 80% | > 80% | > 80% | > 80% | – |
| COc1ccnc(C(=O)N[C@@H](C)C(=O)O[C@@H](C)[C@@H](c2ccc(Cl)cc2Cl)C(C)C)c1O [Compound 333] | < 80% | < 80% | > 80% | < 80% | – |
| COc1ccnc(C(=O)N[C@@H](C)C(=O)O[C@@H](C)[C@H](c2c(F)cc(F)cc2F)C(C)C)c1OC(C)=O [Compound 388] | – | – | – | – | pest or weed control at 121.5 g/ha (Zymoseptoria tritici; [9]): > 80%; pest or weed control at 121.5 g/ha (Zymoseptoria tritici; [10]): > 80%; pest or weed control at 121.5 g/ha (Puccinia triticina; [11]): > 80%; pest or weed control at 121.5 g/ha (Puccinia triticina; [12]): > 80% |
| COc1ccnc(C(=O)N[C@@H](C)C(=O)O[C@@H](C)[C@@H](c2ccc(F)cc2C)C2CCCCC2)c1O [Compound 119] | > 80% | > 80% | > 80% | < 80% | – |
| COc1ccnc(C(=O)N[C@@H](C)C(=O)O[C@@H](C)[C@H](c2ccc(F)cc2C)C(C)C)c1O [Compound 124] | > 80% | > 80% | > 80% | > 80% | – |
| COc1ccc([C@H](C(C)C)[C@H](C)OC(=O)[C@H](C)NC(=O)c2nccc(OC)c2OC(C)=O)c(F)c1 [Compound 251] | – | – | – | – | pest or weed control at 121.5 g/ha (Zymoseptoria tritici; [1]): < 80%; pest or weed control at 121.5 g/ha (Puccinia triticina; [3]): > 80%; pest or weed control at 121.5 g/ha (Puccinia triticina; [4]): > 80% |
| COc1ccnc(C(=S)N[C@@H](C)C(=O)OC(C)[C@H](c2ccccc2)C2CCCC2)c1O (stereo partly shown) [Compound 114] | > 80% | < 80% | > 80% | < 80% | – |
| COc1ccnc(C(=O)N[C@@H](C)C(=O)O[C@@H](C)[C@H](c2cc(F)ccc2F)C(C)C)c1OC(C)=O [Compound 392] | – | – | – | – | pest or weed control at 121.5 g/ha (Zymoseptoria tritici; [9]): < 80%; pest or weed control at 121.5 g/ha (Zymoseptoria tritici; [10]): > 80%; pest or weed control at 121.5 g/ha (Puccinia triticina; [11]): > 80%; pest or weed control at 121.5 g/ha (Puccinia triticina; [12]): > 80% |
| COc1ccnc(C(=O)N[C@@H](C)C(=O)OC(C)[C@H](c2ccccc2)C2CCCC2)c1OC(C)=O (stereo partly shown) [Compound 173] | – | – | – | – | pest or weed control at 121.5 g/ha (Zymoseptoria tritici; [1]): > 80%; pest or weed control at 121.5 g/ha (Zymoseptoria tritici; [2]): > 80%; pest or weed control at 121.5 g/ha (Puccinia triticina; [3]): > 80%; pest or weed control at 121.5 g/ha (Puccinia triticina; [4]): < 80% |
| COc1ccnc(C(=O)N[C@@H](CC(C)C)C(=O)O[C@@H](C)[C@H](c2ccc(F)cc2C)C(C)C)c1O [Compound 320] | < 80% | < 80% | < 80% | < 80% | – |
| COc1ccc([C@H](C(C)C)[C@H](C)OC(=O)[C@H](C)NC(=O)c2nccc(OC)c2OC(C)=O)cc1F [Compound 252] | – | – | – | – | pest or weed control at 121.5 g/ha (Zymoseptoria tritici; [1]): < 80%; pest or weed control at 121.5 g/ha (Puccinia triticina; [3]): > 80%; pest or weed control at 121.5 g/ha (Puccinia triticina; [4]): < 80% |
| CCC(CC)[C@@H](c1ccc(F)cc1OC)[C@H](C)OC(=O)[C@H](C)NC(=O)c1nccc(OC)c1O [Compound 145] | < 80% | > 80% | > 80% | > 80% | – |
| COc1ccnc(C(=O)N[C@@H](C)C(=O)O[C@@H](C)[C@H](c2ccc(Cl)cc2Cl)C(C)C)c1O [Compound 330] | < 80% | < 80% | > 80% | > 80% | – |
| COc1ccc([C@H](C(C)C)[C@H](C)OC(=O)[C@H](C)NC(=O)c2nccc(OC)c2OCOC(C)=O)c(OC)c1 [Compound 264] | – | – | – | – | pest or weed control at 121.5 g/ha (Zymoseptoria tritici; [1]): < 80%; pest or weed control at 121.5 g/ha (Zymoseptoria tritici; [2]): < 80%; pest or weed control at 121.5 g/ha (Puccinia triticina; [3]): > 80%; pest or weed control at 121.5 g/ha (Puccinia triticina; [4]): > 80% |
| COc1ccnc(C(=O)N[C@@H](C)C(=O)O[C@@H](C)[C@H](c2ccccc2C)C(C)C)c1O [Compound 327] | < 80% | > 80% | > 80% | > 80% | – |
| COc1ccnc(C(=O)N[C@@H](C)C(=O)O[C@@H](C)[C@H](c2c(F)cc(F)cc2F)C(C)C)c1O [Compound 341] | > 80% | > 80% | > 80% | > 80% | – |
| COc1ccnc(C(=O)N[C@@H](C)C(=O)O[C@@H](C)[C@H](c2ccccc2)C(C)C)c1OC(C)=O [Compound 165] | – | – | – | – | pest or weed control at 121.5 g/ha (Zymoseptoria tritici; [1]): > 80%; pest or weed control at 121.5 g/ha (Zymoseptoria tritici; [2]): > 80%; pest or weed control at 121.5 g/ha (Puccinia triticina; [3]): > 80%; pest or weed control at 121.5 g/ha (Puccinia triticina; [4]): > 80% |
| COc1ccnc(C(=O)N[C@@H](C)C(=O)O[C@@H](C)[C@H](c2cccc(F)c2C)C(C)C)c1O [Compound 322] | < 80% | < 80% | > 80% | > 80% | – |
| COc1ccnc(C(=O)N[C@@H](C)C(=O)O[C@@H](C)[C@@H](c2ccccc2)C(C)C)c1OC(C)=O [Compound 160] | – | – | – | – | pest or weed control at 121.5 g/ha (Zymoseptoria tritici; [1]): < 80%; pest or weed control at 121.5 g/ha (Zymoseptoria tritici; [2]): > 80%; pest or weed control at 121.5 g/ha (Puccinia triticina; [3]): > 80%; pest or weed control at 121.5 g/ha (Puccinia triticina; [4]): < 80% |
| CCC(C)[C@H](c1ccc(C)cc1C)[C@H](C)OC(=O)[C@H](C)NC(=O)c1nccc(OC)c1O (stereo partly shown) [Compound 134] | < 80% | < 80% | < 80% | < 80% | – |
| COc1ccnc(C(=O)N[C@@H](C)C(=O)O[C@@H](C)[C@H](c2c(F)cccc2Cl)C(C)C)c1O [Compound 343] | > 80% | > 80% | > 80% | > 80% | – |
| CCC(C)[C@@H](c1ccc(F)cc1C)[C@H](C)OC(=O)[C@H](C)NC(=O)c1nccc(OC)c1O (stereo partly shown) [Compound 126] | > 80% | > 80% | > 80% | < 80% | – |
| COc1ccnc(C(=O)N[C@@H](C)C(=O)O[C@@H](C)[C@H](c2cccc(C)c2)C(C)C)c1OC(C)=O [Compound 391] | – | – | – | – | pest or weed control at 121.5 g/ha (Zymoseptoria tritici; [9]): < 80%; pest or weed control at 121.5 g/ha (Zymoseptoria tritici; [10]): < 80%; pest or weed control at 121.5 g/ha (Puccinia triticina; [11]): > 80%; pest or weed control at 121.5 g/ha (Puccinia triticina; [12]): < 80% |
| COCCC(=O)Oc1c(OC)ccnc1C(=O)N[C@@H](C)C(=O)O[C@@H](C)[C@H](c1ccc(C)cc1)C(C)C [Compound 245] | – | – | – | – | pest or weed control at 121.5 g/ha (Zymoseptoria tritici; [1]): < 80%; pest or weed control at 121.5 g/ha (Puccinia triticina; [3]): > 80%; pest or weed control at 121.5 g/ha (Puccinia triticina; [4]): > 80% |
| COc1ccnc(C(=O)N[C@@H](C)C(=O)OC(C)[C@H](c2ccccc2)C2CCCC2)c1O (stereo partly shown) [Compound 113] | > 80% | > 80% | > 80% | > 80% | – |
| CCC(CC)[C@@H](c1ccccc1C)[C@H](C)OC(=O)[C@H](C)NC(=O)c1nccc(OC)c1OC(=O)C(C)C [Compound 387] | – | – | – | – | pest or weed control at 121.5 g/ha (Zymoseptoria tritici; [9]): < 80%; pest or weed control at 121.5 g/ha (Zymoseptoria tritici; [10]): > 80%; pest or weed control at 121.5 g/ha (Puccinia triticina; [11]): > 80%; pest or weed control at 121.5 g/ha (Puccinia triticina; [12]): < 80% |
